PMC9412534, “Diindolylmethane Derivatives: New Selective Blockers for T-Type Calcium Channels” (Membranes, 2022)

Tested on: MCF-7, T-47D, A549 and HT-29 cells
Test: Cell viability MTT assay, four cancer cell lines (overall)
Format: cell-based, human
Conditions: 50 µM, 72 h
Procedure: Human breast cancer cell line MCF-7 and T-47D, lung cancer cell line A549, and colon cancer cell line HT-29 were cultured under 5% carbon dioxide at 37 °C in DMEM Glutamax (Gibco, Life Technologies) supplemented with 10% (v/v) FBS. They were split in a ratio of 1:3–1:6 (ideally 2–4 × 10,000 cells/cm^2) when they reached 70–80% confluence using 0.25% Trypsin-EDTA. For cell viability MTT assay, cells were seeded into 96-well clear bottom culture plates (Corning, Lowell, MA, USA) at a density of 5 × 10^3 cells/well and settled at 37 °C for 24 h.
Seeded cells were treated with various concentrations of compounds for desired time period (24, 48 and 72 h). After the treatments, the media were removed from each well, and replaced with 25 μL of serum-free media and 25 μL of MTT Reagent (cat. no., ab211091; Abcam, Cambridge, MA, USA). The plate was then incubated at 37 °C for 3 h, and 75 μL of MTT Solvent (cat. no., ab211091; Abcam) was added into each well after incubation. The absorbance was evaluated at 590 nm. Cell-wells treated with 0.1% DMSO were used as positive control and no cell-wells were used as background control.

With `O=C(c1cn(Cc2ccccc2)c2ccccc12)c1cn(Cc2ccccc2)c2ccccc12` [IX, bis(1-benzyl-1H-indol-3-yl)methanone] the “effect on cancer cell viability” value was “did not affect cancer cell viability”.
